Data on 20 compounds can be found in PubChem BioAssay (NCI).

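Following 48 hours of exposure in 96-well plates, responses at five concentrations were used to interpolate endpoints linearly. GI50 is the concentration that inhibits growth by half. Definition used: TGI = concentration required for complete inhibition of growth.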 A value given as a limit tells only on which side of the number the result lay.

Among the test systems are HOP-62 NSCLC; HCT-116 colon; CCRF-CEM leukemia; HS 578T breast; A549 NSCLC; SK-MEL-28 melanoma; SNB-75 CNS; SK-OV-3 ovarian; COLO 205 colon; HCC-2998 colon.
Test in all cases: inhibition of tumour cell growth, NCI panel, 48 h

For the compound `C(=Nc1ccc2c(c1)Cc1ccccc1-2)c1ccccn1`, the TGI with HOP-62 NSCLC, in the test with HCT-116 colon, with CCRF-CEM leukemia, in the test on HS 578T breast, with A549 NSCLC and in the test with SK-MEL-28 melanoma was greater than 100 µM in each case. For the same compound, the TGI with SNB-75 CNS is greater than 100 µM.
For the compound `Cc1ccc(CSC(N)=Nc2ccccc2)cc1C`, the TGI in the test on HOP-62 NSCLC was 49.1 µM; in the test with HCT-116 colon, 32.1 µM; in the test with CCRF-CEM leukemia, greater than 100 µM; in the test with HS 578T breast it was 49.1 µM; in the test on SK-OV-3 ovarian, 54.7 µM; in the test on A549 NSCLC, greater than 100 µM. Moreover, the TGI came to 41.5 µM in the test on COLO 205 colon, 45.1 µM with SK-MEL-28 melanoma and 63.9 µM with SNB-75 CNS.
Consider `COc1ccc(C2COc3c(ccc(O)c3C)C2)cc1OC` (stereo unspecified), for which the TGI is greater than 200 µM in the test with HOP-62 NSCLC; 153 µM in the test on HCT-116 colon; greater than 200 µM in the test with CCRF-CEM leukemia; greater than 200 µM with SK-OV-3 ovarian; greater than 167 µM in the test with A549 NSCLC; 166 µM in the test on COLO 205 colon. Also, the TGI in the test with HCC-2998 colon was 121 µM; in the test with SK-MEL-28 melanoma, greater than 196 µM; in the test on SNB-75 CNS, 110 µM.
In the case of `Cc1nc2ccc(S(=O)(=O)Nc3nccs3)cc2c(=O)n1NS(=O)(=O)c1nccs1`, the TGI in the test with HOP-62 NSCLC, with CCRF-CEM leukemia, in the test with HS 578T breast, in the test on SK-OV-3 ovarian, in the test on COLO 205 colon and with HCC-2998 colon was greater than 100 µM throughout. The TGI in the test with SK-MEL-28 melanoma and in the test with SNB-75 CNS was greater than 100 µM each time.
In the case of `N[C@H](Cc1ccc2oc3cc(=O)c4ccccc4c-3nc2c1)C(=O)O`, the TGI with HOP-62 NSCLC is greater than 100 µM; in the test on HCT-116 colon, greater than 100 µM; in the test on CCRF-CEM leukemia it was 56.2 µM; in the test on HS 578T breast, greater than 100 µM; with SK-OV-3 ovarian, greater than 100 µM; with A549 NSCLC, greater than 100 µM. For the same compound, the TGI with COLO 205 colon, with SK-MEL-28 melanoma and in the test with SNB-75 CNS was greater than 100 µM throughout.
As for `CCCCC1C=Cn2c(=O)oc3c(OC(C)C)c(C)c(O)c1c32` (stereo unspecified), the TGI in the test with HOP-62 NSCLC was found to be 10.5 µM; in the test on HCT-116 colon it was 7.07 µM; with CCRF-CEM leukemia, 5.1 µM; in the test on HS 578T breast, 14.3 µM; with SK-OV-3 ovarian it was 13.3 µM; in the test with A549 NSCLC it was 6.97 µM. The TGI with COLO 205 colon came to 9.97 µM; in the test with HCC-2998 colon it was 13.6 µM; in the test with SK-MEL-28 melanoma it was 8.33 µM; in the test with SNB-75 CNS, 4.83 µM.
Take `COC(=O)C1=C(OC)[C@H]2C#C/C=C\C#C[C@@H]3Nc4c(cc(O)c5c4C(=O)c4ccccc4C5=O)[C@]24O[C@@]34[C@H]1C`: the TGI in the test on HOP-62 NSCLC is less than 0.01 µM; with HCT-116 colon, 7.6 µM; in the test on CCRF-CEM leukemia it was less than 0.01 µM; in the test with HS 578T breast it was 3.82 µM; in the test with A549 NSCLC, 0.111 µM; in the test with COLO 205 colon, 0.014 µM. The values for the TGI with HCC-2998 colon and with SNB-75 CNS were less than 0.0135 µM and less than 0.01 µM, respectively.
As for `COc1ccc2c(c1)c(-c1nc(-c3c[nH]c4ncccc34)cs1)cn2CCCCN1CCCCC1`, the GI50 was 1.48 µM in the test with HOP-62 NSCLC; 1.83 µM in the test with CCRF-CEM leukemia; 1.66 µM in the test on HS 578T breast; 1.75 µM in the test on SK-OV-3 ovarian; 1.74 µM with HCC-2998 colon; 1.27 µM with SNB-75 CNS. For the same compound, the TGI in the test on HOP-62 NSCLC was 2.95 µM; in the test with CCRF-CEM leukemia, 3.5 µM; in the test on HS 578T breast, 4.38 µM; in the test with SK-OV-3 ovarian it was 3.18 µM; with HCC-2998 colon, 3.29 µM; in the test with SNB-75 CNS, 2.68 µM.
With `C[n+]1c2ccccc2c(NC(CCCN=C(N)N)C(=O)O)c2ccccc21` (stereo unspecified), the TGI with HOP-62 NSCLC, in the test with HCT-116 colon, in the test with SK-OV-3 ovarian, in the test on A549 NSCLC, in the test on COLO 205 colon and in the test on HCC-2998 colon was greater than 100 µM in each case. For the same compound, the TGI in the test on SNB-75 CNS was greater than 100 µM.
Take `CN(C)CCCNc1ccc2ncn3c4ccc(O)cc4c(=O)c1c23`: the TGI amounted to 8.97 µM with HOP-62 NSCLC; 11.2 µM with HCT-116 colon; 32.6 µM in the test on CCRF-CEM leukemia; 13.6 µM with HS 578T breast; 15.1 µM in the test on SK-OV-3 ovarian; 5.82 µM with A549 NSCLC. In addition, the TGI in the test on COLO 205 colon came out at 15.3 µM; in the test with HCC-2998 colon, 18.1 µM; in the test with SK-MEL-28 melanoma, 18.1 µM; in the test with SNB-75 CNS it was 11.7 µM.
In the case of `COc1ccc(/C=N/n2cnc3c(c2=O)SC(=C(C#N)C#N)N3c2ccccc2)cc1`, the TGI in the test on HOP-62 NSCLC, in the test with HCT-116 colon, with CCRF-CEM leukemia, in the test on SK-OV-3 ovarian, with A549 NSCLC and in the test with COLO 205 colon was greater than 100 µM each time. For the same compound, the TGI with HCC-2998 colon is greater than 100 µM; with SK-MEL-28 melanoma it was greater than 100 µM; with SNB-75 CNS, 72.4 µM.
For the compound `C/C(=N\NC(=S)N1CCCC1)c1nc2ncccc2[nH]1`, the TGI is 24.6 µM in the test with HOP-62 NSCLC; 18.1 µM with HCT-116 colon; 1.1 µM with CCRF-CEM leukemia; greater than 100 µM in the test with HS 578T breast; 54.2 µM in the test with SK-OV-3 ovarian; greater than 100 µM with A549 NSCLC. For the same compound, the TGI was 28.5 µM in the test with COLO 205 colon, greater than 100 µM in the test on HCC-2998 colon, 28.2 µM in the test with SK-MEL-28 melanoma and greater than 100 µM in the test on SNB-75 CNS.
For the compound `CCOC(=O)c1sc2nc(SC)nc(Nc3ccc4c(c3)OCCO4)c2c1N`, the TGI with HOP-62 NSCLC was 29.5 µM; in the test with HCT-116 colon, 42.1 µM; in the test on CCRF-CEM leukemia, greater than 100 µM; with A549 NSCLC it was greater than 100 µM; with COLO 205 colon it was greater than 100 µM; in the test on HCC-2998 colon it was greater than 100 µM. In addition, the TGI with SK-MEL-28 melanoma is greater than 100 µM.
Consider `O=C1c2ccccc2OCC12OC21C=CC(Cl)=CC1` (stereo unspecified), for which the TGI was 92.1 µM in the test on HOP-62 NSCLC; 43.6 µM in the test with HCT-116 colon; greater than 100 µM in the test with SK-OV-3 ovarian; 56.6 µM with A549 NSCLC; 33.4 µM in the test with COLO 205 colon; 42.2 µM in the test on HCC-2998 colon. This compound registered a TGI in the test with SK-MEL-28 melanoma of 67.4 µM.
Turning to `CCCO[C@@H]1[C@@H](OC(C)=O)[C@@H](OC(C)=O)C(C)(C)/C=C/[C@H](C)C(=O)[C@@]2(OC(C)=O)C[C@@](C)(OC(C)=O)[C@H](OC(C)=O)[C@@H]2[C@H]2OC(=O)CC[C@@]12OC(=O)c1ccccc1`, the TGI in the test with HOP-62 NSCLC, in the test on HCT-116 colon, in the test with CCRF-CEM leukemia, with HS 578T breast, with SK-OV-3 ovarian and in the test with COLO 205 colon was greater than 25 µM in each case. In addition, the TGI in the test on HCC-2998 colon and in the test on SNB-75 CNS was greater than 25 µM each time.
For the compound `CCCC(=O)[O-].CCCC(=O)[O-].NCCN.NCCN.[Co+3].[O-][Cl+3]([O-])([O-])[O-]`, the TGI in the test with HOP-62 NSCLC, in the test on HCT-116 colon, in the test with CCRF-CEM leukemia, with SK-OV-3 ovarian, in the test with A549 NSCLC and in the test on COLO 205 colon was greater than 100 µM throughout. For the same compound, the TGI with HCC-2998 colon, in the test with SK-MEL-28 melanoma and in the test on SNB-75 CNS was greater than 100 µM each time.
`CN(C)CCNC(=O)c1cccc2[nH]c(-c3ccccn3)nc12`: the TGI with HOP-62 NSCLC was greater than 90.8 µM; in the test with HCT-116 colon, greater than 65.2 µM; in the test with CCRF-CEM leukemia, greater than 100 µM; with SK-OV-3 ovarian, greater than 100 µM; with A549 NSCLC it was greater than 100 µM; in the test with COLO 205 colon, 33.6 µM. Besides, the TGI is greater than 100 µM in the test with HCC-2998 colon, greater than 58 µM in the test on SK-MEL-28 melanoma and 92.8 µM with SNB-75 CNS.
As for `CCCn1cnc2c(SCc3ccc(Cl)cc3)nc(N)nc21`, the TGI was 44.4 µM in the test on HOP-62 NSCLC; 44.2 µM with HCT-116 colon; greater than 100 µM with CCRF-CEM leukemia; greater than 100 µM in the test with HS 578T breast; greater than 100 µM with SK-OV-3 ovarian; greater than 100 µM in the test on A549 NSCLC. In addition, the TGI in the test on HCC-2998 colon came out at 52.5 µM; in the test with SK-MEL-28 melanoma it was 83.4 µM; with SNB-75 CNS, 88.7 µM.
Consider `C=CCCC1(C)CCCNC1=S` (stereo unspecified), for which the TGI in the test with HOP-62 NSCLC, in the test on HCT-116 colon, with CCRF-CEM leukemia, in the test with SK-OV-3 ovarian, in the test on A549 NSCLC and in the test with COLO 205 colon was greater than 100 µM each time. Besides, the TGI with HCC-2998 colon, in the test with SK-MEL-28 melanoma and in the test with SNB-75 CNS was greater than 100 µM throughout.
`O=C(N[C@@H](Cc1coc2ccccc12)B(O)O)[C@@H]1C[C@H]2CC[C@@H]1O2`: the GI50 in the test on HOP-62 NSCLC is 3.65 µM; in the test on HCT-116 colon, 3.25 µM; with CCRF-CEM leukemia it was 1.2 µM; in the test on HS 578T breast, 3.81 µM; in the test on SK-OV-3 ovarian it was 9.17 µM; with A549 NSCLC it was 7.58 µM. In addition, the GI50 in the test on COLO 205 colon was 23.1 µM; in the test with HCC-2998 colon, 5.11 µM; in the test on SK-MEL-28 melanoma, 4.5 µM; in the test with SNB-75 CNS it was 2.78 µM. In addition, the TGI in the test with HOP-62 NSCLC is 43.6 µM; in the test with HCT-116 colon it was 27.1 µM; in the test on CCRF-CEM leukemia, greater than 100 µM; in the test with HS 578T breast it was 66.6 µM; with SK-OV-3 ovarian it was greater than 100 µM; in the test on A549 NSCLC, greater than 100 µM. The TGI in the test with COLO 205 colon is greater than 100 µM; in the test with HCC-2998 colon, 21.1 µM; with SK-MEL-28 melanoma it was greater than 100 µM; in the test on SNB-75 CNS, 38.2 µM.
